Laboratory results taken from PubChem BioAssay AID602211 (Sanford-Burnham Center for Chemical Genomics, 2012).
pIC50: −log10 of the molar value. Active and inactive are the calls of the source.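 Rule for the calls: active = mean IC50 at or below 10 µM; inactive = the rest.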

The compounds below were run on H9c2 cardiomyocytes, H2O2 protection, ATPLite viability, 2 h (assay: protection of H9c2 cardiomyocytes from H2O2 death, dose response, cell-based, ATPLite luminescence, set 2 (AID 602211);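 note: potency is for protection so actives keep ATP signal up against peroxide killing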).
Work on `O=[N+]([O-])c1ccc(Nc2nc(N/N=C/c3cccc(F)c3)nc(N3CCCC3)n2)cc1` yielded a pIC50 of 5.02. With `COc1ccc(-c2cc(-c3nnc(COC(=O)C4CC4C)o3)c3ccccc3n2)cc1OC` (configuration not stated) the pIC50 was 5.41. `COc1ccc(/C=N/NC(=O)c2ccc(COc3cccc4cccnc34)cc2)cc1OC` was tested, and the pIC50 was 5.41. With `O=C(NCCc1c[nH]c2ccccc12)C(=O)NCC(c1ccco1)N1CCN(c2ccccc2F)CC1` (configuration not stated) the pIC50 was 5.25. With `COc1cc(C(=O)Nc2cc3c(cc2N2CCCCC2)n(C)c(=O)n3C)cc(OC)c1OC` the IC50 was 11.2 µM (inactive). In the case of `CC(=O)Nc1ccc(-c2csc(NC(=O)Nc3ccccc3)n2)cc1`, the IC50 was 40.6 µM (inactive). With `CCOc1ccc(CCNC(=O)c2cc3c(C)nccc3[nH]c2=O)cc1OCC` the IC50 was 42.9 µM (inactive). For `CCOC(=O)C1=C(C)NC(C)=C(C(=O)OCC)C1C(=O)OCC(=O)NC(C)C`, the IC50 was 12.9 µM (inactive). With `O=C(c1ccco1)N1CCN(C(=O)c2cc(-c3ccncc3)nc3ccc(Br)cc23)CC1` the IC50 was 13.8 µM (inactive). `C=CC[C@@H](CC(=O)NCCO)C(=O)NC[C@H](OC(=O)[C@@H](CC=C)Cc1ccc(F)cc1)c1ccccc1` gave a pIC50 of 5.47. Work on `Cc1ccccc1N(C(=O)c1snc(C(N)=O)c1N)C(C(=O)NCc1ccccc1)c1ccc(O)cc1` (configuration not stated) yielded a pIC50 of 5.20. `CCCOc1ccc2[nH]c(C(=O)N/N=C/c3cc(OC)c(OC)c(OC)c3)cc2c1` showed a pIC50 of 5.39. With `CNC(=O)c1cccc(NC(=O)c2cc(-c3ccccc3)nc3c2cnn3C(C)C)c1` the IC50 was > 79 µM (inactive). With `COCc1c(C(=O)Nc2ccc3nc(N4CCOCC4)sc3c2)oc2ccccc12` the IC50 was > 79 µM (inactive). `COC(=O)c1cc2ccccn2c2c(C(=O)OC)c(C(=O)OC)cc1-2` showed a pIC50 of 5.65. With `CCc1nnc(NC(=O)CCC(=O)N2CCN(C3c4ccccc4-c4ccccc43)CC2)s1` the IC50 was 12.9 µM (inactive). `CCOC(=O)C1=C(C)NC(C)=C(C(=O)OCC)C1C(=O)OCC(=O)NC1CCCCC1` was tested, and the pIC50 was 5.48. `COc1ccccc1NC(=O)c1cc(-c2cc(OC)c(OC)c(OC)c2)nc2ccccc12` was tested, and the pIC50 was 5.54. Work on `O=C(Nc1cccc(NC(=O)c2ccc([N+](=O)[O-])o2)c1)c1ccco1` yielded a pIC50 of 5.80. `COc1ccc(-c2ccc3c(c2)S(=O)(=O)c2cccc(C(=O)NC[C@@H]4CCCO4)c2C3=O)cc1OC` gave a pIC50 of 5.30. In the case of `COc1cc(C(=O)N/N=C/c2ccc(OC(=O)c3ccccc3Cl)cc2)ccc1O`, the IC50 was > 79 µM (inactive). In the case of `COc1cc(-c2cnc3c(NC=O)cc(-c4ccsc4)cn23)cc(OC)c1OC`, the IC50 was > 79 µM (inactive). `COC(=O)c1ccc(N)c(N=CC2=C(O)CC(C)(C)CC2=O)c1` gave a pIC50 of 5.12. With `CC(C)(C)OC(=O)CNC(=O)c1[nH]cnc1C(=O)Nc1ccc(CNC(=O)OC(C)(C)C)cc1` the pIC50 was 5.67. `C=CC[C@@H](CC(=O)N[C@H](CO)Cc1ccccc1)C(=O)N[C@@H](COC(=O)[C@@H](CC=C)CC(=O)OC(C)(C)C)Cc1ccccc1` was tested, and the IC50 was 12.3 µM (inactive). For `CCOC(=O)c1ccccc1OCc1cc(/C=N/NC(=O)c2cccnc2)ccc1OC`, the IC50 was > 79 µM (inactive). In the case of `CCC(=O)Nc1cccc(-c2nnc(-c3cccc(NC(=O)CC)c3)o2)c1`, the pIC50 was 5.39. With `O=C(NCC(=O)N(Cc1cccs1)C(C(=O)NC1CCCCC1)c1ccco1)c1ccco1` (configuration not stated) the IC50 was 10.6 µM (inactive). For `CCOc1ccc(-n2cc(-c3ccccc3)c3c(N4CCOCC4)ncnc32)cc1`, the pIC50 was 5.18. Compound `O=c1c2ccccc2nc(CSc2ncnc3nc[nH]c23)n1-c1ccc(Cl)c(Cl)c1` has a pIC50 of 5.38. Work on `Cc1ccc(-c2csc(N3CCC[C@@H]3C(=O)NCCn3c(-c4ccncc4)nc4ccccc43)n2)cc1` yielded a pIC50 of 5.55. In the case of `CC(=O)c1ccc(-c2ccc(C(=O)Nc3nc(-c4ccccn4)cs3)o2)cc1`, the pIC50 was 5.80. With `COc1cccc(/C=N/NC(=O)c2nc(-c3ccccc3)cc(-c3ccccc3)n2)c1` the pIC50 was 5.79. Work on `CCOCCn1ccc2c(OCC(=O)Nc3cc(OC)ccc3OC)cccc2c1=O` yielded a pIC50 of 5.28. For `Cc1cccc(NC(=O)c2cc(-c3ccco3)nc3ccccc23)n1`, the pIC50 was 5.09. In the case of `COc1cc(/C=C/c2nc3ccccc3c(=O)n2-c2ccc(O)cc2)ccc1O`, the pIC50 was 5.52. `C[C@H]1Cn2cnc(C(=O)N[C@@H](Cc3c[nH]c4ccccc34)C(=O)OC(C)(C)C)c2C(=O)N1` was tested, and the IC50 was 24.1 µM (inactive). With `CN1CCc2nc3ccccc3c(C(=O)OCC(=O)N(CCC#N)c3ccccc3)c2C1` the IC50 was 22.7 µM (inactive). With `CC(=O)Nc1cccc(NC(=O)c2cc(-c3cccnc3)nc3ccc(Br)cc23)c1` the pIC50 was 5.89. With `O=C(NCCN1CCN(c2ccccc2F)CC1)c1cccn2c(=O)c3ccccc3nc12` the pIC50 was 5.13. `O=C(C[C@H]1C/C=C\CC[C@H](Cc2ccc(F)cc2)C(=O)O[C@H](c2ccccc2)CNC1=O)N[C@H](CO)Cc1ccccc1` was tested, and the IC50 was > 79 µM (inactive). `COc1cc2nc(C3CCC3)nc(N3CCN(c4ccccn4)CC3)c2cc1OC` was tested, and the IC50 was > 79 µM (inactive). Work on `CCOc1ccc(C(C(=O)NCC2CCCO2)N(C(=O)c2snc(C(N)=O)c2N)c2ccccc2F)cc1` (configuration not stated) yielded a pIC50 of 5.44. `C[C@H](CO)N1C[C@H](C)[C@@H](CN(C)S(=O)(=O)c2ccccc2)Oc2ccc(NC(=O)Nc3ccccc3)cc2C1=O` was tested, and the IC50 was 16.6 µM (inactive). `CC(C(=O)NC1CCCC1)N(C(=O)Cn1nnc(-c2ccc(F)cc2)n1)c1ccccc1F` (configuration not stated) was tested, and the pIC50 was 5.77. In the case of `CCCNC(=O)c1ccc(N2CCC3(CC2)CC(c2ccccc2)=NO3)c(NC(=O)c2ccco2)c1`, the pIC50 was 5.38. Compound `COc1cc(NC(=O)c2ccc(-c3cn[nH]c3)c3ccoc23)cc(OC)c1OC` has a pIC50 of 5.49. Compound `COc1cc(/C=C(\C#N)c2nc3ccc(C)cc3[nH]2)c([N+](=O)[O-])cc1OC` has a pIC50 of 5.03. With `O=c1cc(-c2cccnc2)oc2c1ccc1ccccc12` the IC50 was 31.2 µM (inactive). `CC12C=CC(=O)CC1CCC1C2CCC2(C)C(O)C(O)CC12` (configuration not stated) was tested, and the pIC50 was 5.58. Work on `Nc1c(C(=O)NC2CC2)c2nc3ccccc3nc2n1-c1ccc2c(c1)OCO2` yielded a pIC50 of 5.35. `CC(=O)c1cccc(Nc2nc3ccccc3n3cnnc23)c1` gave a pIC50 of 5.41. Compound `COC(=O)c1cc(C(=O)OCC(=O)N2c3ccccc3NC(=O)C2(C)C)cc([N+](=O)[O-])c1` has a pIC50 of 5.20. `NC(=O)c1cccc(-c2coc3c(C(=O)NCCc4ccccc4)cccc23)c1` was tested, and the IC50 was > 79 µM (inactive). For `CC(=O)c1cccc(-c2cnc3c(NC=O)cc(-c4ccc(F)cc4)cn23)c1`, the pIC50 was 5.11. Compound `COc1cc2c(C#CCCO)c(-c3ccsc3)oc(=O)c2cc1OC` has a pIC50 of 5.69. For `COc1ccc(/C=N/NC(=O)c2cc(-c3ccc4c(c3)OCO4)n[nH]2)cc1OC`, the pIC50 was 5.13. For `COc1cccc(-c2cnc3c(NC=O)cc(-c4cccc(C(=O)N(C)C)c4)cn23)c1`, the IC50 was 12.6 µM (inactive). `Fc1ccc(CSc2ccc3nnc(-c4cccnc4)n3n2)cc1` was tested, and the pIC50 was 5.21. `c1ccc(-c2nc(-n3ccnc3)nc(-n3ccnc3)n2)cc1` showed a pIC50 of 5.38. For `CC(=O)c1ccc(-c2[nH]c3ccccc3c2CCN2C(=O)c3ccccc3C2=O)cc1`, the pIC50 was 5.01. In the case of `Cn1c(=O)n(CCc2ccccc2)c(=O)c2c1nc1n2CCN1Cc1ccco1`, the IC50 was > 79 µM (inactive). In the case of `COc1cccc(/C=N/NC(=O)c2ccncc2)c1OC(=O)c1ccc(Br)cc1`, the IC50 was 15.4 µM (inactive). `CCn1c(O)c(/C=N/N=C2CCCCC2)c2cc(C3=NNC(=O)CC3)ccc21` showed a pIC50 of 5.00. Work on `O=C(Cn1nc(C(=O)O)c2ccccc2c1=O)c1c[nH]c2ccccc12` yielded a pIC50 of 5.45. `CC(=O)Nc1ccc(S(=O)(=O)N(Cc2cccnc2)Cc2cc3ccccc3[nH]c2=O)cc1` gave a pIC50 of 5.82. Compound `CCN(CC(=O)Nc1ccc(OC)cc1)C(=O)c1cc(-c2cccs2)nn1-c1ccccc1` has a pIC50 of 5.69.
